Measured values from ChEMBL document CHEMBL1201862, “PubChem BioAssay data set” (2004).
Active and inactive are the calls of the source.

Experiments:
[1] = target: Luciferin 4-monooxygenase (Photinus pyralis, UniProt P08659); assay: firefly luciferase enzyme inhibitors, dose response, biochemical, luminescence (AID 1891)
[2] = Luminescence Cell-Based Dose Confirmation HTS to Identify Inhibitors of Platelet Dense Granule Release. [Related pubchem assays: 1663 (Primary HTS), 1678 (Summary of Project)]; assay type: functional
[3] = target: Eukaryotic translation initiation factor 4H (Homo sapiens, UniProt Q15056); assay: human eIF4H binding inhibitors, primary screen, translation initiation inhibitor project, biochemical, uHTS, fluorescence polarization (AID 2012)
[4] = target: Polyadenylate-binding protein 1 (Homo sapiens, UniProt P11940); assay: PABP poly(A) RNA binding inhibitors, primary screen, biochemical, fluorescence polarization, uHTS (AID 2014)
Polyadenylate-binding protein 1, sequence (P11940 whole entry): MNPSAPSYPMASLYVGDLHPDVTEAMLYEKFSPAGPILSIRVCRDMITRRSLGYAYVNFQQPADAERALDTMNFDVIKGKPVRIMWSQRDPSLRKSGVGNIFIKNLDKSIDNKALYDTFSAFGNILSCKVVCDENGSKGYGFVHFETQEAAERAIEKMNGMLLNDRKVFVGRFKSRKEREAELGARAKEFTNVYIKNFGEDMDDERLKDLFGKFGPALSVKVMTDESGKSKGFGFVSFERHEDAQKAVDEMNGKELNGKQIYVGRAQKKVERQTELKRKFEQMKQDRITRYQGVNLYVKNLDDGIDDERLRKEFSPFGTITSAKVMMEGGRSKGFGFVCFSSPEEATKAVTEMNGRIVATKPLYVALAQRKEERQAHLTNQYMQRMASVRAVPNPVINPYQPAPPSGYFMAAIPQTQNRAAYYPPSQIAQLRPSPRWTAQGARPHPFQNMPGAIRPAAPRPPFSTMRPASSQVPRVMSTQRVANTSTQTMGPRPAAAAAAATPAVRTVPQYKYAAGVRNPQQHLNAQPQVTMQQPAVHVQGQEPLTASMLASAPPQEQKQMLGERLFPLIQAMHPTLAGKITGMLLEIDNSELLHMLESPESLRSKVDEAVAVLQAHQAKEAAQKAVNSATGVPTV

[5] = target: Metabotropic glutamate receptor 4 (Rattus norvegicus, UniProt P31423); assay: Modulation of the Metabotropic Glutamate Receptor mGluR4: Rat PAM Potency. [Related pubchem assays (depositor defined):AID2437, AID2807]; assay type: functional
[6] = target: T1, Scavenger receptor class B member 1 (Mus musculus, UniProt Q61009); assay: inhibitors of SR-BI mediated HDL lipid uptake, dose response, ldlA[mSR-BI] cells, fluorescence, cherry pick (AID 493194); assay type: functional, cell-based;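 further: cellular uptake of fluorescent DiI-labeled HDL measured as cell fluorescence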
T1 sequence (Q61009 whole entry): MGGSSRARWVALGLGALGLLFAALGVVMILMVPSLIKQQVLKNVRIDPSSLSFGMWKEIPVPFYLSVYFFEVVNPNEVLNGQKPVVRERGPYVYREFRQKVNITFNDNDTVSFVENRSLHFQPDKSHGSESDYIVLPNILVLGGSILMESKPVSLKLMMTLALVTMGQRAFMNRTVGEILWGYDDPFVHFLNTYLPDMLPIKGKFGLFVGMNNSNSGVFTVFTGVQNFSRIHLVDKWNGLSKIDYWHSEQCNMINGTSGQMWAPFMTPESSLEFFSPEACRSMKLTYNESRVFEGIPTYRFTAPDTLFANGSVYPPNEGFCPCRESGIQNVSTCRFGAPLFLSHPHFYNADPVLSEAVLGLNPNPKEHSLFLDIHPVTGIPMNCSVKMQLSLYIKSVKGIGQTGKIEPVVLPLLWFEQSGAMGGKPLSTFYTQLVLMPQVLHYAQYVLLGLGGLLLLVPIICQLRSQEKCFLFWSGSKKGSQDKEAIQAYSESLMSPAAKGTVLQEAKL

[7] = target: T2, Voltage-gated N-type calcium channel alpha-1B subunit/Amyloid beta A4 precursor protein-binding family A member 1 (Homo sapiens, UniProt Q00975+Q02410); assay: disruptors of Mint-PDZ/N-type channel peptide interaction – biochemical, HTRF, SAR follow-up (AID 2489); assay type: functional
T2 sequence (Q00975 whole entry): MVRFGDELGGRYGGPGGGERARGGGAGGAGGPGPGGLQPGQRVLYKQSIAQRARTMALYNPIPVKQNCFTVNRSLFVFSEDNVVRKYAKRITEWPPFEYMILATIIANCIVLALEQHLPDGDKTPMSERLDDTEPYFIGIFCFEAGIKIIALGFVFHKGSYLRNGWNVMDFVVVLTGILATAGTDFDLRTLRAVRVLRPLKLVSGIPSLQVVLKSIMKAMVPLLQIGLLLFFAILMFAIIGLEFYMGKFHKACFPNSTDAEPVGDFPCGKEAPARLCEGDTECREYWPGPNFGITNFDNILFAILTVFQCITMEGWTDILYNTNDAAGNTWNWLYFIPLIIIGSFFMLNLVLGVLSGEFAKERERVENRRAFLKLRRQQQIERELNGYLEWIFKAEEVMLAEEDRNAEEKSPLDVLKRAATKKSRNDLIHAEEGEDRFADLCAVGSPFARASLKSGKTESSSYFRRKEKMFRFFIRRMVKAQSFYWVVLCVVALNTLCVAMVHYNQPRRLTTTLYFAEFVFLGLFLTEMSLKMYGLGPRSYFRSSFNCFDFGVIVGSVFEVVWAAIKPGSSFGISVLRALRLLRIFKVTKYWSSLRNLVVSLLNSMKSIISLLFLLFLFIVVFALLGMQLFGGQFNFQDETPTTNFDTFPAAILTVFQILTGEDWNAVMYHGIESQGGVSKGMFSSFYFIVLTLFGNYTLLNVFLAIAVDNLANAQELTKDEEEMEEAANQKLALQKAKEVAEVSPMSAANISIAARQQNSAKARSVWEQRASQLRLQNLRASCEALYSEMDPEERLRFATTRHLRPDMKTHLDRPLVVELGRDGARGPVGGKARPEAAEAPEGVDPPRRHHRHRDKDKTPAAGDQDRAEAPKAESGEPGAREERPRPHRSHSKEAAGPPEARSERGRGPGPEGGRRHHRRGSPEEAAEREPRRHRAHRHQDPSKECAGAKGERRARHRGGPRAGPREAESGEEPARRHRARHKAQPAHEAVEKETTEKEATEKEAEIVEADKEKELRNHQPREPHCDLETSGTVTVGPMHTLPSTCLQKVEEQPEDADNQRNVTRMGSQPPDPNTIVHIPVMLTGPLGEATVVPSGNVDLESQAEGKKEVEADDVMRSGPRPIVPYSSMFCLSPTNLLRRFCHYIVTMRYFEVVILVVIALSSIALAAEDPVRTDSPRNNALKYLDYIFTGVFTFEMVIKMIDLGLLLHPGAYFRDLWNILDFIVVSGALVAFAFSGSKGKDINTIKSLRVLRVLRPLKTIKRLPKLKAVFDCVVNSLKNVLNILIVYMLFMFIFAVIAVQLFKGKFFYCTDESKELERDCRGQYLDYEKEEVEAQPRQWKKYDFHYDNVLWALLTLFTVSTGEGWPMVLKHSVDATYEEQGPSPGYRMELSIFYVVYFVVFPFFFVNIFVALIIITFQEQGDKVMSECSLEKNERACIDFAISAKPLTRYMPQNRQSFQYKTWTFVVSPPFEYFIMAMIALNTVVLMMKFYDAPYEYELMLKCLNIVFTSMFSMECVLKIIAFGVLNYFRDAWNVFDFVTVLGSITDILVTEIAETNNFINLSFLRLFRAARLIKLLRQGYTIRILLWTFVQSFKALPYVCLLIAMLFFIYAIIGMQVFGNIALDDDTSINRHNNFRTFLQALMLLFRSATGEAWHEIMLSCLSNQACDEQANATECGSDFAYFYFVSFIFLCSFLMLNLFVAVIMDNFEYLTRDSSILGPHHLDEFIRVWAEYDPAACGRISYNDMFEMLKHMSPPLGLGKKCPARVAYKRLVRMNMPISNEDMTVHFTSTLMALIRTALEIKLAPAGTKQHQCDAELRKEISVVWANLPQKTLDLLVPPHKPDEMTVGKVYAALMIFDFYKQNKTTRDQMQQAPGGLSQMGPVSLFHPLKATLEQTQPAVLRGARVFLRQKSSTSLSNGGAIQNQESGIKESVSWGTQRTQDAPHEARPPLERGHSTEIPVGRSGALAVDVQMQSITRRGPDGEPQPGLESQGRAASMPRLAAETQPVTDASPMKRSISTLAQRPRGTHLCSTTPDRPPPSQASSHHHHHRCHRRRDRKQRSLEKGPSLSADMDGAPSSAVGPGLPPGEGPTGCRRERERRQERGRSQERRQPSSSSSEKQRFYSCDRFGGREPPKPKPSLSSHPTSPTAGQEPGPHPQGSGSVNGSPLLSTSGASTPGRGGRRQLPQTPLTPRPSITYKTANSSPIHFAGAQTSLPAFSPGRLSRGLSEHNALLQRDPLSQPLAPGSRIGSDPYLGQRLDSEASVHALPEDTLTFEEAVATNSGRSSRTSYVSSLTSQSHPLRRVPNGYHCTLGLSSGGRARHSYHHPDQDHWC
T2 sequence (Q02410 whole entry): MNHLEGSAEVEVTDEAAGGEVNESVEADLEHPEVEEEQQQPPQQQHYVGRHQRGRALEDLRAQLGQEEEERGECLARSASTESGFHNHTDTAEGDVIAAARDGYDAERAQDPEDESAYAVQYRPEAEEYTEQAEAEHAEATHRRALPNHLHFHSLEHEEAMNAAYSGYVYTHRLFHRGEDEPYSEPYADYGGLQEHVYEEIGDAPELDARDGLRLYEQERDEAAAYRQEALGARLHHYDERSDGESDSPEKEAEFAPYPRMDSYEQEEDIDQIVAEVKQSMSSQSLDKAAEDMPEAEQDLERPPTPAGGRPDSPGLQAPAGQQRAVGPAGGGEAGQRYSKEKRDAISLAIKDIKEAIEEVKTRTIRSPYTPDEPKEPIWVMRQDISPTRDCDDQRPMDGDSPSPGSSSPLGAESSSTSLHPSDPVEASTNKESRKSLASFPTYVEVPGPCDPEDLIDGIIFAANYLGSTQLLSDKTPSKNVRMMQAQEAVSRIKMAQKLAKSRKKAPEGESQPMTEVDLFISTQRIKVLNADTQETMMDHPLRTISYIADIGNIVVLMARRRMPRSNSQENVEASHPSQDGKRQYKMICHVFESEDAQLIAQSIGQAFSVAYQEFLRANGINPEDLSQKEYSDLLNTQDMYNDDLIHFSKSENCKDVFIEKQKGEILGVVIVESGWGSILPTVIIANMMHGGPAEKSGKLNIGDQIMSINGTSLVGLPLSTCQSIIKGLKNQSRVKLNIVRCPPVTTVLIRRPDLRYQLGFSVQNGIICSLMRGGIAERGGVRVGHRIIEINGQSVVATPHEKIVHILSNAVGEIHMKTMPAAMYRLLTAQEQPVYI

[8] = target: T2, Voltage-gated N-type calcium channel alpha-1B subunit/Amyloid beta A4 precursor protein-binding family A member 1; assay: disruptors of Mint-PDZ/N-type channel peptide interaction – biochemical, HTRF, set 2, SAR follow-up (AID 434980); assay type: functional
[9] = Vero E6 cell cytotoxicity, dose response, cytotoxicity control for non-replicating M. tuberculosis project, secondary assay (AID 492998); assay type: functional, VeroE6; conditions: Vero C1008
[10] = target: T3, Microphthalmia-associated transcription factor (Homo sapiens, UniProt O75030); assay: TRPM1 promoter luciferase signal decrease, dose response, MITF inhibitor project, cell-based, SK-MEL-5, cherry-picked, set 3 (AID 493073); assay type: functional
T3 sequence (O75030 whole entry): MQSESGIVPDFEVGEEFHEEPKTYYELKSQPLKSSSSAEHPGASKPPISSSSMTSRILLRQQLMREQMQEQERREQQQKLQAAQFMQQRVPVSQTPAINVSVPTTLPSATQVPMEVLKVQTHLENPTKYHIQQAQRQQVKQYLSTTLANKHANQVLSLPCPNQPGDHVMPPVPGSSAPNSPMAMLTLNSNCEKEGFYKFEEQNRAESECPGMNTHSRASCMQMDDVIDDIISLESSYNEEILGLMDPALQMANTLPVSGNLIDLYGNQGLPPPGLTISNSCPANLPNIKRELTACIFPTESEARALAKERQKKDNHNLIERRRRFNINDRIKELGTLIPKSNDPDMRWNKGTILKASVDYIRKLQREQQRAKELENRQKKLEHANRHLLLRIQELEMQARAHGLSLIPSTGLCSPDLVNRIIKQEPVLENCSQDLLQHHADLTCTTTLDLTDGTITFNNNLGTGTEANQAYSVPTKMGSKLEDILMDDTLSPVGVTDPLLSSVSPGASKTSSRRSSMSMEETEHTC

[11] = THP-1 cell cytotoxicity, dose response, cytotoxicity control for non-replicating M. tuberculosis project (AID 489025); assay type: functional
[12] = tested on: BJ; assay: cytotoxicity toward Ras-transformed BJeLR fibroblasts, dose response, cell-based, alamar blue fluorescence, cherrypicked samples (AID 2631); assay type: functional; conditions: Homo sapiens;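 further: confirmatory dose-response assay in RAS-dependent BJ fibroblasts engineered with TERT, LT and ST, with cytotoxicity read by fluorescence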
[13] = cytotoxicity toward DRD oncogenic fibroblasts, dose response, cell-based, non-viral oncogenic, luminescence (AID 1934); assay type: functional; conditions: Homo sapiens
[14] = tested on: INS1; assay: beta cell apoptosis inhibitors, cytokine rescue, dose response, luminescence, retest (AID 449756); assay type: functional, cell-based; conditions: Rattus norvegicus;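 further: cell death triggered by IL-1 beta plus TNF-alpha plus IFN-gamma mixture; protective hits raise ATP signal compared with cytokine alone wells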
[15] = cells; assay type: functional, cell-based
[16] = HepG2 cell cytotoxicity, dose response, cytotoxicity control for non-replicating M. tuberculosis project (AID 489018); assay type: functional; conditions: Mycobacterium tuberculosis
[17] = tested on: Streptococcus sp. 'group A'; assay: growth inhibition of control SK(-) GAS strain, dose response, counter-screen for streptokinase expression inhibitor project, luminescence, kanamycin, BacTiterGlo, confirmation (AID 1900); assay type: functional, organism-based
[18] = tested on: BJ; assay: cytotoxicity toward BJ-TERT-LT-ST fibroblasts, dose response, cell-based, RAS-independent, luminescence (AID 1935); assay type: functional; conditions: Homo sapiens;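 further: BJ fibroblasts immortalized with TERT plus LT and ST oncogenes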
[19] = cells; assay type: functional, cell-based; remark: listed apart in the source
[20] = cells; assay type: functional
[21] = tested on: BJ; assay: cytotoxicity toward BJ-TERT fibroblasts, dose response, cell-based, RAS-independent, luminescence (AID 1933); assay type: functional; conditions: Homo sapiens
[22] = tested on: Streptococcus; assay: Group A Streptococcus viability loss, dose response, counter-screen for streptokinase expression inhibitor project, luminescence, BacTiterGlo (AID 1915); assay type: functional, organism-based;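 further: potency for reduction of bacterial viability or growth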
[23] = tested on: Vero; assay: cells; assay type: functional; conditions: Chlorocebus sabaeus
[24] = tested on: BJ; assay: cells; assay type: functional, cell-based; conditions: Homo sapiens

Luciferin 4-monooxygenase, sequence (P08659 whole entry): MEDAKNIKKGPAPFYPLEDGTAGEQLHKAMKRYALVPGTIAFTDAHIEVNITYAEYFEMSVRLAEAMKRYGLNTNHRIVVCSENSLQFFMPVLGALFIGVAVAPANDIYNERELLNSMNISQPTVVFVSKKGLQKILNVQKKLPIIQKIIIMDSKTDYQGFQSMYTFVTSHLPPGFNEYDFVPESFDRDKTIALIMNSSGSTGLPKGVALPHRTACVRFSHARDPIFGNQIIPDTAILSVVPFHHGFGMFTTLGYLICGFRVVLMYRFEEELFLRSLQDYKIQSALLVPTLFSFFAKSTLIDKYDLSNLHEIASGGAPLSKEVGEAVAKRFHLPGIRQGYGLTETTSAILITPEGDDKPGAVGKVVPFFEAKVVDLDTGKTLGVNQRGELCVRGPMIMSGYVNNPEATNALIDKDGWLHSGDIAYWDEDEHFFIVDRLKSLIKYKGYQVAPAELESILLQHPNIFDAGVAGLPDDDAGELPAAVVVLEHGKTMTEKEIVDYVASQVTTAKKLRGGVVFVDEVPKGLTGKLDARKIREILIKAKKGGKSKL

CC(=O)c1cccc(NC(=O)CCc2nnc3ccc(NCc4ccco4)nn23)c1
EC50 [1]: > 112 µM (not active)
EC50 [2]: > 112 µM (not active)
IC50 [3]: 12 µM (active)
IC50 [4]: 77 µM (active)

COc1cc(NC(=O)c2ccccn2)ccc1NC(=O)c1ccccc1Cl
EC50 [5]: 0.11 µM (active)

CCOc1ccc(CCNC(=O)C2CC(=O)N(c3ccccc3OCC)C2)cc1OCC (centres undefined)
AC50 [6]: 17.3 µM (active)

CCCOc1ccc(N2C(=O)C3C(C2=O)C2(C)C=CC3(C)O2)cc1 (centres undefined)
IC50 [7]: 9.66 µM (active)
IC50 [8]: > 56.8 µM (inactive)

COc1cccc(C(=O)N/N=C(/c2ccccc2)c2ccccn2)c1
CC50 [9]: 1.98 µM (active)
AC50 [10]: 5.8 µM (active)
CC50 [11]: 0.844 µM (active)
EC50 [12]: 1.45 µM (active)
EC50 [13]: 2.82 µM (active)
AC50 [14]: 0.745 µM (active)
EC50 [15]: > 350 µM (not active)
CC50 [16]: 11.3 µM (active)
EC50 [17]: 14.2 µM (active)
EC50 [18]: 3.26 µM (active)
EC50 [19]: 9.7 µM (active)
IC50 [20]: 2.04 µM (active)
EC50 [21]: 2.69 µM (active)
EC50 [22]: 18 µM (active)
CC50 [23]: 2.36 µM (active)
EC50 [24]: 4.58 µM (active)
